Results taken from patent US20080249176A1, “Methods and Compositions for the Treatment of Myocardial Conditions” (priority 2004, published 2008).

Legend:
Na^+—K^+ pump = assay: Whole-cell patch clamp measurement of Na+-K+ pump current (Ip) in isolated cardiac myocytes; type: cell-based, rabbit
Excerpt: The whole-cell patch clamp technique (Hamill et al, 1981; Buhagier et al, 2004; Hansen et al, 2002) was used to examine the effect of β3 adrenoceptor stimulation on the Na^+—K^+ pump in isolated cardiac myocytes.
With the whole-cell patch clamp technique myocytes are suspended in a tissue bath mounted on the stage of an inverted microscope. A fine glass pipette is attached to the cell membrane and gentle suction applied to rupture the membrane patch directly under the tip of the glass pipette. This allows the intracellular compartment of the myocyte to be perfused with solution contained in the patch pipette. It also allows access of drugs and compounds to the intracellular compartment. Control of the composition of the extracellular solution in the tissue bath is achievable. The technique also allows control of membrane voltage and measurement of total membrane current.
The Na^+—K^+ pump's 3Na^+:2K^+ exchange ratio generates a current (Ip) that can be measured as the shift in holding current of the patch-clamped myocyte that is induced by pump blockade with 100 μM ouabain.
In the whole-cell configuration the bath was perfused with modified Tyrode's solution which contained (in mmol/L) NaCl 140; KCl 5.6; CaCl2 2.16; MgCl2 1; NaH2PO4 0.44; glucose 10 and Na-glutamate 9; N-2-hydroxyethyl piperazine-N′-2-[…] (HEPES) 10. The solution was titrated to a pH of 7.40±0.01 at 35° C. with NaOH.
For measurement of Ip the system was switched to a superfusate that usually was identical to the modified Tyrode's solution except that it was nominally Ca^2+-free and contained 0.2 mmol/L CdCl2 and 2 mmol/L BaCl2.
Wide-tipped patch pipettes (4-5 μm) were filled with solutions containing (in mmol/L) HEPES 5; MgATP 2; ethylene glycol-bis(β-aminoethyl ether)-N,N,N′,N′-tetraacetic acid (EGTA) 5; KCl 70 mmol/L. Osmotic balance was maintained with 80 mmol/L tetramethylammonium chloride (TMA-Cl). The solutions were titrated to a pH of 7.05±0.01 at 35° C. with 1 mmol/L TMA-OH. Ip was identified at a holding potential of −40 mV as the shift in holding current induced by Na^+—K^+ pump blockade with 100 μmol/L ouabain 10-15 minutes after the whole-cell configuration had been established. […] Details of patch pipette characteristics and equipment and criteria for defining Ip have been reported previously (Buhagiar et al, 1999).
The whole-cell patch clamp technique was similar to that described above except that extracellular Na^+ was eliminated (NaCl was replaced with N-methyl-D-glucamine (NMG.Cl)) to rule out any possible influx of Na^+ across the cell membrane.

[1] = system: model of ischaemic cardiomyopathy with severe heart failure induced by repeated coronary microembolisation in sheep; assay: Sheep heart failure model, left ventricular end systolic pressure-volume relationship (ESPVR); type: in vivo; conditions: intravenous infusion, increasing doses, mean of 3 sheep, FIG. 6
Method: To examine the effect of acute activation of the β3-receptor we used a model of ischaemic cardiomyopathy with severe heart failure induced by repeated coronary microembolisation in sheep (Huang, Y et al., Am J Physiol 286: H2141-50, 2004). The model is stable and reflects the human condition well (Huang et al, 2004).
BRL 37344 was administered by intravenous infusion over a period of 8 min, starting with the lowest dose of the protocol. After an additional 5 min pressure-volume relationships were determined as described (Huang et al., 2004). The procedure was then repeated in an identical fashion using a larger dose of BRL 37344. The left ventricular end systolic pressure-volume relationship (ESPVR) was used as an index of cardiac performance. ESPVR is relatively independent of confounding factors such as pre- and after-load and heart rate, and is widely accepted as a good index of left ventricular function.
Results are shown in FIG. 6, both before and after induction of heart failure. The independent variable on the abscissa indicates the dose in microgram BRL 37344 per kg weight of the sheep. Note the logarithmic increment in dose. The mean of ESPVR measured in 3 different sheep before and after induction of severe heart failure is shown on the ordinate. […]

PKA = conditions: H-89 0.5 μM; cited from earlier work

O=C(Nc1ncnc2c1ncn2[C@@H]1O[C@@H]2COP(=O)(O)OC2C1O)c1ccccc1 (stereo in doubt) [6-Bnz-cAMP]
Effect on Ip (Na^+—K^+ pump; 100 μM 6-Bnz-cAMP in patch pipette solution, NA-free control superfusate, FIG. 5): significant decrease in Ip

C[C@H](Cc1ccc(OCC(=O)O)cc1)NC[C@H](O)c1cccc(Cl)c1 [BRL 37344]
BRL 37344-induced stimulation of the Na,K-pump in the absence of extracellular Na^+ (Na^+—K^+ pump; 10 nM BRL 37344, NaCl replaced by NMG.Cl, FIG. 3): persisted in the absence of extracellular Na^+ | Na,K-pump activity at 100 nM in comparison with activity observed with 10 nM (Na^+—K^+ pump; 100 nM vs 10 nM BRL 37344, pipette Na 10 mM, FIG. 1): apparent lower activity | Na^+—K^+ pump current (Ip) in comparison with normal controls (Na^+—K^+ pump; BRL 37344 1 nM, 10 nM and 100 nM, pipette Na 10 mM, FIG. 1): significantly stimulates | Slope of linear regression of log dose vs. ESPVR ([1]; normal sheep (before induction of heart failure)): trend towards a negative slope | Slope of linear regression of log dose vs. ESPVR ([1]; sheep after induction of severe heart failure): significantly positive

Cl.Cl.O=S(=O)(NCCNCC=Cc1ccc(Br)cc1)c1cccc2cnccc12 [H-89, N-[2-(p-Bromocinnamylamino)ethyl]-5-isoquinolinesulfonamide dihydrochloride]
Effect on 6-Bnz-cAMP-induced decrease in Ip (Na^+—K^+ pump; H-89 0.5 μM + 6-Bnz-cAMP 100 μM in pipette solution, FIG. 5): reversed the 6-Bnz-cAMP-induced decrease in Ip | Effect on PKA-mediated Na^+—K^+ pump inhibition (PKA): abolishes PKA-mediated Na^+—K^+ pump inhibition

NC[C@H](O)c1ccc(O)c(O)c1 [NA, noradrenaline]
NA-induced increase in Ip with β1/β2 blockade (Na^+—K^+ pump; 10 nM NA + 1 μM nadolol, FIG. 4): persisted in the presence of nadolol | NA-induced increase in Ip with PKA blockade (Na^+—K^+ pump; 10 nM NA, 0.5 μM H-89 in patch pipette solution, FIG. 4): persisted with PKA blockade | Effect on Ip (Na^+—K^+ pump; 10 nM NA, FIG. 4): induced an increase in Ip

CC(C)(C)NCC(O)COc1cccc2c1CC(O)C(O)C2 (stereo not drawn) [nadolol]
Na,K-pump activity with nadolol in the presence of 100 nM BRL 37344 compared to 100 nM BRL 37344 alone (Na^+—K^+ pump; nadolol 1 μM + 100 nM BRL 37344 in superfusate, FIG. 2): increased, although not quite significantly
